Data on one compound can be found in patent US11214561B2, “Histone methyltransferase EZH2 inhibitor, preparation method and pharmaceutical use thereof” (ANCUREALL PHARMACEUTICAL (SHANGHAI) CO., LTD., priority 2017, dated 2022).

One data set deals with Karpas-422 (EZH2 Y641N). In words: In vitro 50% growth inhibition (GI50), MTT/CCK8, Karpas-422 cells. It is filed as cell-based. To be noted: Homo sapiens, KARPAS-422, 144 h; Drug treatment for 6 days.
For data set [1], the system named is EZH2 A677G mutant positive-expressing tumor cell line Pfeiffer. In words: In vivo growth inhibition, Pfeiffer subcutaneous transplantation model. To be noted: for Tumor volume: 200 mg/kg orally once a day. From the text:
Test Example 2 Determination of the in vivo growth inhibition activity of the present compounds on EZH2 A677G mutant positive-expressing tumor cell line Pfeiffer NOD/SCID mice were subcutaneously inoculated with human diffuse large cell B lymphoma lymphocyte Pfeiffer (ATCC) expressing EZH2 A677G mutant protein to establish a subcutaneous transplantation model of human B cell lymphoma.
Experimental animals: NOD/SCID mice, female, 9 weeks (weeks of age when tumor cell inoculation), average weight 20.3 g, 18 mice, were purchased from Shanghai Lingchang biotechnology co., Ltd. with animal certificate No.: 2002007656. The breeding environment was SPF grade.
Test samples: the present example compounds 34 (purity: 99.03%) and 35 (purity: 97.6%), solid powder, preserved at −20° C.
Pfeiffer cells were cultured in RPM1640 medium containing 10% of fetal bovine serum. Log-phase Pfeiffer cells were collected and resuspended with PBS to 1×10^8 cells per ml for subcutaneous inoculation in NOD/SCID mice.
All the mice were treated with Co60 irradiation at a dose of 200 rad the day before the inoculation, and 1×10^7 Pfeiffer cells were then subcutaneously inoculated at the right back, and the cells were resuspended in 1:1 PBS and Matrigel (0.1 ml/mouse). When the average tumor volume was 134 mm^3, the mice were randomly grouped according to tumor size. Tumor volume was calculated as: long diameter×short diameter^2/2. The day of tumor cells inoculation was defined as day 0. The test was divided into solvent control group and drug treatment group (compound 34 group and compound 35 group). 6 mice for each group were given orally once a day for a total of 4 weeks. Efficacy was assessed based on relative tumor growth inhibition value (TGI), and safety was assessed based on animal weight change and mortality.
Preparation of test samples: compounds 34 or 35 was weighed and mixed with ultrapure water, and methanesulfonic acid was added for clarification. The PH value was about 1.64 at this moment. 4M NaOH was then added to adjust the PH to 3.5 and bring to volume by ultrapure water, the final concentrations was 20 mg/ml. Determination standard: TGI (%): […].
T/C % refers to the relative value-added rate of tumor, that is, the percentage value of relative tumor volume or tumor weight for the treatment group and the control group at a certain point. T and C were the relative tumor volumes (RTV) of the treatment group and the control group at a specific point, respectively. The calculation formula is as follows: T/C%=TRTV/CRTV*100% TRTV: mean RTV of the treatment group; CRTV: mean RTV of solvent control group; RTV=Vt/V0, V0 was the tumor volume of the animal when grouping, Vt was the tumor volume of the animal after treatment. Statistical analysis: all test results were defined as mean tumor volume±SEM (mean standard error). Tumor volume data of 27 days after the start of treatment were selected for statistical analysis among different groups, and independent sample T test was used to compare whether there were significant differences in tumor volume between the treatment group and the control group. All data were analyzed using SPSS 18.0. P<0.05 was considered as significant difference.

Where [2] appears, read: 200 mg/kg, 27th day after the start of treatment.
Setting [3] is: 200 mg/kg, 27 days after the start of treatment.

By GI50 is commonly meant the concentration at which growth is held to half of that of the control. Read a low GI50 as greater sensitivity of the cells. Compound `C=CC(=O)N1CCC(N(CC)c2cc(-c3ccc(CN4CCCCC4)cc3)cc(C(=O)NCc3c(C)cc(C)[nH]c3=O)c2C)CC1` [Example 34, N-(4,6-dimethyl-2-oxo-1,2-dihydro-pyridin-3-ylmethyl)-5-[(1-acryloyl-piperidin-4-yl)-ethyl-amino]-4-methyl-4′-(piperidin-1-ylmethyl)-[1,1′-biphenyl]-3-carboxamide] had a GI50 with Karpas-422 (EZH2 Y641N) of 10 to 100 nM. Moreover, the “body weight during the treatment” value in data set [1] (200 mg/kg dose) was “maintained a stable body weight”. In addition, the tolerability entry in data set [1] (200 mg/kg dose) is recorded as “well tolerated”. The Tumor volume turned out to be 135 ± 10 mm^3 in data set [1] (Day 0 after the start of treatment); 298 ± 25 mm^3 in data set [1] (Day 3 after the start of treatment); 439 ± 48 mm^3 in data set [1] (Day 7 after the start of treatment); 441 ± 56 mm^3 in data set [1] (Day 10 after the start of treatment); 381 ± 39 mm^3 in data set [1] (Day 14 after the start of treatment); 472 ± 100 mm^3 in data set [1] (Day 17 after the start of treatment). The Tumor volume came to 477 ± 158 mm^3 in data set [1] (Day 21 after the start of treatment); 570 ± 154 mm^3 in data set [1] (Day 24 after the start of treatment); 538 ± 199 mm^3 in data set [1] (Day 27 after the start of treatment, listed as Compound 34); 538 mm^3 in data set [1] (Day 27 after the start of treatment, listed as compound 34). In addition, the “RTV (x ± S), relative tumor volume” value in data set [1] (setting [2]) turned out to be 4.7 ± 2.3. The “T/C (%), relative tumor volume” value in data set [1] (setting [2]) is 32.9%. The “TGI (%), relative tumor volume” value in data set [1] (setting [2]) is reported as 67.1%. Further, in data set [1] (setting [3]), the “T/C (%), tumor weight” value was determined as 23.4%. Besides, in data set [1] (setting [3]), the TGI, tumor weight was determined as 76.6%. Also, the “Tumor weight (mg) (x ± S)” value in data set [1] (setting [3]) was determined as 264 ± 113 mg. Besides, the “anti-tumor effect, in words” value in data set [1] (200 mg/kg, versus solvent control group) is “significant anti-tumor effects”.
